From PubChem BioAssay AID1963873 (Molecular Pharmacology Branch, DTP, NCI, 2024)
Values joined by “and” are separate entries in the source; they are usually repeats but may differ in a detail not shown here. Identical values can stand only once.

System: 276233-004-R-J1-PDC KRAS spheroids with HUVEC/MSC, viability
Assay: Anticancer human tumor 276233-004-R-J1-PDC patient-derived colon adenocarcinoma cell line growth inhibition [KRAS2]
Details: for viability, T/C: stronger effect = lower value
How it was run: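 Combination screen of spheroid viability in tumor-cell co-cultures with endothelial (HUVEC) and mesenchymal stem cell stroma. Each agent was tested in half-log dilutions, topping at clinical Cmax or at 10 microM without a known Cmax.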

[1] = curve of first compound, second compound 0.1 µM
[2] = curve of first compound, second compound 0.316 µM
[3] = curve of first compound, second compound 1 µM
[4] = curve of first compound, second compound 3.16 µM
[5] = curve of first compound, second compound 10 µM
[6] = second compound 0.1 µM, first compound 0.0316 µM
[7] = second compound 0.1 µM, first compound 0.1 µM
[8] = second compound 0.1 µM, first compound 0.316 µM
[9] = second compound 0.1 µM, first compound 1 µM
[10] = second compound 0.1 µM, first compound 3.16 µM
[11] = second compound 0.1 µM, first compound 10 µM
[12] = second compound 0.316 µM, first compound 0.0316 µM
[13] = second compound 0.316 µM, first compound 0.1 µM
[14] = second compound 0.316 µM, first compound 0.316 µM
[15] = second compound 0.316 µM, first compound 1 µM
[16] = second compound 0.316 µM, first compound 3.16 µM
[17] = second compound 0.316 µM, first compound 10 µM
[18] = second compound 1 µM, first compound 0.0316 µM
[19] = second compound 1 µM, first compound 0.1 µM
[20] = second compound 1 µM, first compound 0.316 µM
[21] = second compound 1 µM, first compound 1 µM
[22] = second compound 1 µM, first compound 3.16 µM
[23] = second compound 1 µM, first compound 10 µM
[24] = second compound 3.16 µM, first compound 0.0316 µM
[25] = second compound 3.16 µM, first compound 0.1 µM
[26] = second compound 3.16 µM, first compound 0.316 µM
[27] = second compound 3.16 µM, first compound 1 µM
[28] = second compound 3.16 µM, first compound 3.16 µM
[29] = second compound 3.16 µM, first compound 10 µM
[30] = second compound 10 µM, first compound 0.0316 µM
[31] = second compound 10 µM, first compound 0.1 µM
[32] = second compound 10 µM, first compound 0.316 µM
[33] = second compound 10 µM, first compound 1 µM
[34] = second compound 10 µM, first compound 3.16 µM
[35] = second compound 10 µM, first compound 10 µM
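Also: cells exposed to agents for seven days before viability read.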
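For viability, T/C in this document: 100% = DMSO vehicle control wells and lower values mean fewer viable cells.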

SMILES	IC50 [1]	IC50 [2]	IC50 [3]	IC50 [4]	IC50 [5]	viability, T/C [6]	viability, T/C [7]	viability, T/C [8]	viability, T/C [9]	viability, T/C [10]	viability, T/C [11]	viability, T/C [12]	viability, T/C [13]	viability, T/C [14]	viability, T/C [18]	viability, T/C [19]	viability, T/C [24]	viability, T/C [25]	viability, T/C [30]	viability, T/C [31]	further results
C=CC(=O)N1CCN(c2nc(OCC3CCCN3C)nc3c2CCN(c2cccc4cccc(C)c24)C3)CC1CC#N (stereo not drawn)	–	–	–	–	–	–	–	–	–	–	–	–	–	–	–	–	–	–	–	–	IC50 (compound alone, run of 07/12/2021): > 3160 nM and 2820 nM; IC50 (compound alone, run of 07/19/2021): > 3160 nM and 2570 nM and 2490 nM; IC50 (compound alone, run of 07/26/2021): > 3160 nM
COc1cc2nccc(Oc3ccc(NC(=O)C4(C(=O)Nc5ccc(F)cc5)CC4)cc3)c2cc1OC + CNCc1ccccc1-c1csc(C(C)Nc2nc(C)nc3cc(OC)c(OC)cc23)c1	> 10000 nM	> 10000 nM	595 nM	< 31.6 nM	< 31.6 nM	82.3%	109%	82.8%	88.3%	80.9%	88.2%	83.3%	85%	85.8%	74.8%	58.8%	0.61%	2.67%	0.64%	0.19%	viability, T/C [15]: 109%; viability, T/C [16]: 83.2%; viability, T/C [17]: 67.2%; viability, T/C [20]: 68.7%; viability, T/C [21]: 35.6%; viability, T/C [22]: 15%; viability, T/C [23]: 41.5%; viability, T/C [26]: 0.63%; viability, T/C [27]: 0.45%; viability, T/C [28]: 0.77%; viability, T/C [29]: 0.33%; viability, T/C [32]: 0.57%; viability, T/C [33]: 0.15%; viability, T/C [34]: 0.14%; viability, T/C [35]: 1.46%
COc1cc(Nc2ncc3c(n2)-c2ccc(Cl)cc2C(c2c(F)cccc2OC)=NC3)ccc1C(=O)O + CC1OCC2(CCN(c3cnc(Sc4ccnc(N)c4Cl)c(N)n3)CC2)C1N	> 10000 nM	> 10000 nM	> 10000 nM	865 nM	< 31.6 nM	107%	85.6%	86%	75.6%	99%	68.5%	83.9%	82.5%	84.7%	75%	73.8%	61%	51.1%	46.5%	49.2%	viability, T/C [15]: 82.4%; viability, T/C [16]: 67.1%; viability, T/C [17]: 64%; viability, T/C [20]: 75.2%; viability, T/C [21]: 74.9%; viability, T/C [22]: 65%; viability, T/C [23]: 52.2%; viability, T/C [26]: 51.3%; viability, T/C [27]: 55.2%; viability, T/C [28]: 44.4%; viability, T/C [29]: 45.2%; viability, T/C [32]: 41.9%; viability, T/C [33]: 42%; viability, T/C [34]: 54%; viability, T/C [35]: 48%
CN(C)C/C=C/C(=O)Nc1cc2c(Nc3ccc(F)c(Cl)c3)ncnc2cc1O[C@H]1CCOC1 + COc1cc2nc(C)nc(NC(C)c3cc(N)cc(C(F)(F)F)c3)c2cc1OC1CCOC1	> 100 nM	> 100 nM	> 100 nM	> 100 nM	> 100 nM	79.8%	80.2%	–	–	–	–	68.5%	74%	–	71.4%	67.5%	56%	66.3%	63.6%	63.4%	viability, T/C (second compound 0.1 µM, first compound 0.000316 µM): 99.4%; viability, T/C (second compound 0.1 µM, first compound 0.001 µM): 95.6%; viability, T/C (second compound 0.1 µM, first compound 0.00316 µM): 77.4%; viability, T/C (second compound 0.1 µM, first compound 0.01 µM): 86.9%; viability, T/C (second compound 0.316 µM, first compound 0.000316 µM): 80%; viability, T/C (second compound 0.316 µM, first compound 0.001 µM): 82.9%; viability, T/C (second compound 0.316 µM, first compound 0.00316 µM): 71.7%; viability, T/C (second compound 0.316 µM, first compound 0.01 µM): 61.1%; viability, T/C (second compound 1 µM, first compound 0.000316 µM): 86.1%; viability, T/C (second compound 1 µM, first compound 0.001 µM): 107%; viability, T/C (second compound 1 µM, first compound 0.00316 µM): 87.9%; viability, T/C (second compound 1 µM, first compound 0.01 µM): 83.8%; viability, T/C (second compound 3.16 µM, first compound 0.000316 µM): 64.4%; viability, T/C (second compound 3.16 µM, first compound 0.001 µM): 66.9%; viability, T/C (second compound 3.16 µM, first compound 0.00316 µM): 74.7%; viability, T/C (second compound 3.16 µM, first compound 0.01 µM): 63%; viability, T/C (second compound 10 µM, first compound 0.000316 µM): 65%; viability, T/C (second compound 10 µM, first compound 0.001 µM): 69%; viability, T/C (second compound 10 µM, first compound 0.00316 µM): 67.4%; viability, T/C (second compound 10 µM, first compound 0.01 µM): 65.5%
